Data as given in ChEMBL document CHEMBL1275550, “In vitro activity of doripenem, a carbapenem for the treatment of challenging infections caused by gram-negative bacteria, against recent clinical isolates from the United States” (2008).
≈ marks a conversion by molar mass, not a printed value.

Legend:
Assay type in all cases: functional
[1] = system: Staphylococcus aureus; assay: Antimicrobial activity against methicillin-susceptible Staphylococcus aureus by broth microdilution method
[2] = system: Streptococcus pneumoniae; assay: Antimicrobial activity against penicillin-susceptible Streptococcus pneumoniae by broth microdilution method
[3] = system: Streptococcus pneumoniae; assay: Antimicrobial activity against penicillin-intermediate Streptococcus pneumoniae assessed as intermediate isolate by broth microdilution method
[4] = system: Streptococcus pneumoniae; assay: Antimicrobial activity against […] assessed as susceptible isolate by broth microdilution method
[5] = system: Staphylococcus aureus; assay: Antimicrobial activity against methicillin-susceptible Staphylococcus aureus assessed as susceptible isolate by broth microdilution method
[6] = system: Streptococcus pneumoniae; assay: Antimicrobial activity against penicillin-resistant Streptococcus pneumoniae assessed as resistant isolate by broth microdilution method
[7] = system: Staphylococcus; assay: Antimicrobial activity against methicillin-susceptible coagulase-negative Staphylococcus by broth microdilution method
[8] = system: Streptococcus pneumoniae; assay: Antimicrobial activity against penicillin-resistant Streptococcus pneumoniae by broth microdilution method
[9] = system: Staphylococcus; assay: Antimicrobial activity against methicillin-susceptible coagulase-negative Staphylococcus assessed as susceptible isolate by broth microdilution method
[10] = system: Enterobacter cloacae; assay: Antimicrobial activity against Enterobacter cloacae with derepressed AmpC beta-lactamsae assessed as intermediate isolate by broth microdilution method
[11] = system: Proteus mirabilis; assay: Antimicrobial activity against Non-ESBL Proteus mirabilis assessed as intermediate isolate by broth microdilution method
[12] = system: Klebsiella pneumoniae; assay: Antimicrobial activity against Non-ESBL Klebsiella pneumoniae assessed as susceptible isolate by broth microdilution method
[13] = system: Proteus mirabilis; assay: Antimicrobial activity against ESBL producing Proteus mirabilis assessed as susceptible isolate by broth microdilution method
[14] = system: Citrobacter; assay: Antimicrobial activity against Citrobacter with nonderepressed AmpC beta-lactamsae assessed as intermediate isolate by broth microdilution method
[15] = system: Escherichia coli; assay: Antimicrobial activity against ESBL producing Escherichia coli assessed as resistant isolate by broth microdilution method
[16] = system: Enterobacter cloacae; assay: Antimicrobial activity against Enterobacter cloacae with derepressed AmpC beta-lactamsae assessed as resistant isolate by broth microdilution method
[17] = system: Klebsiella pneumoniae; assay: Antimicrobial activity against Non-ESBL Klebsiella pneumoniae assessed as intermediate isolate by broth microdilution method
[18] = system: Serratia marcescens; assay: Antimicrobial activity against Ceftazidime non-susceptible Serratia marcescens by broth microdilution method
[19] = system: Enterobacteriaceae; assay: Antimicrobial activity against ceftazidime-susceptible Enterobacteriaceae assessed as susceptible isolate by broth microdilution method
[20] = system: Citrobacter; assay: Antimicrobial activity against Citrobacter with derepressed AmpC beta-lactamsae by broth microdilution method
[21] = system: Enterobacter cloacae; assay: Antimicrobial activity against Enterobacter cloacae with derepressed AmpC beta-lactamsae by broth microdilution method
[22] = system: Enterobacter cloacae; assay: Antimicrobial activity against Enterobacter cloacae with nonderepressed AmpC beta-lactamsae assessed as susceptible isolate by broth microdilution method
[23] = system: Escherichia coli; assay: Antimicrobial activity against Non-ESBL Escherichia coli assessed as susceptible isolate by broth microdilution method
[24] = system: Proteus mirabilis; assay: Antimicrobial activity against ESBL producing Proteus mirabilis assessed as intermediate isolate by broth microdilution method
[25] = system: Enterobacteriaceae; assay: Antimicrobial activity against ceftazidime-susceptible Enterobacteriaceae assessed as resistant isolate by broth microdilution method
[26] = system: Enterobacter cloacae; assay: Antimicrobial activity against Enterobacter cloacae with nonderepressed AmpC beta-lactamsae assessed as resistant isolate by broth microdilution method
[27] = system: Serratia marcescens; assay: Antimicrobial activity against Ceftazidime non-susceptible Serratia marcescens assessed as susceptible isolate by broth microdilution method
[28] = system: Proteus mirabilis; assay: Antimicrobial activity against Non-ESBL Proteus mirabilis by broth microdilution method
[29] = system: Citrobacter; assay: Antimicrobial activity against Citrobacter with derepressed AmpC beta-lactamsae assessed as resistant isolate by broth microdilution method
[30] = system: Escherichia coli; assay: Antimicrobial activity against ESBL producing Escherichia coli assessed as intermediate isolate by broth microdilution method
[31] = system: Enterobacter cloacae; assay: Antimicrobial activity against Enterobacter cloacae with nonderepressed AmpC beta-lactamsae assessed as intermediate isolate by broth microdilution method
[32] = system: Escherichia coli; assay: Antimicrobial activity against Non-ESBL Escherichia coli assessed as intermediate isolate by broth microdilution method
[33] = system: Enterobacteriaceae; assay: Antimicrobial activity against ceftazidime-susceptible Enterobacteriaceae by broth microdilution method
[34] = system: Klebsiella pneumoniae; assay: Antimicrobial activity against ESBL producing Klebsiella pneumoniae assessed as susceptible isolate by broth microdilution method
[35] = system: Enterobacteriaceae; assay: Antimicrobial activity against Ceftazidime non-susceptible Enterobacteriaceae assessed as resistant isolate by broth microdilution method
[36] = system: Serratia marcescens; assay: Antimicrobial activity against Ceftazidime susceptible Serratia marcescens assessed as resistant isolate by broth microdilution method
[37] = system: Escherichia coli; assay: Antimicrobial activity against Non-ESBL Escherichia coli by broth microdilution method
[38] = system: Proteus mirabilis; assay: Antimicrobial activity against Non-ESBL Proteus mirabilis assessed as susceptible isolate by broth microdilution method
[39] = system: Serratia marcescens; assay: Antimicrobial activity against Ceftazidime susceptible Serratia marcescens assessed as susceptible isolate by broth microdilution method
[40] = system: Serratia marcescens; assay: Antimicrobial activity against Ceftazidime non-susceptible Serratia marcescens assessed as resistant isolate by broth microdilution method
[41] = system: Enterobacter cloacae; assay: Antimicrobial activity against Enterobacter cloacae with derepressed AmpC beta-lactamsae assessed as susceptible isolate by broth microdilution method
[42] = system: Proteus mirabilis; assay: Antimicrobial activity against ESBL producing Proteus mirabilis by broth microdilution method
[43] = system: Enterobacter cloacae; assay: Antimicrobial activity against Enterobacter cloacae with nonderepressed AmpC beta-lactamsae by broth microdilution method
[44] = system: Klebsiella pneumoniae; assay: Antimicrobial activity against Non-ESBL Klebsiella pneumoniae by broth microdilution method
[45] = system: Klebsiella pneumoniae; assay: Antimicrobial activity against ESBL producing Klebsiella pneumoniae assessed as resistant isolate by broth microdilution method
[46] = system: Klebsiella pneumoniae; assay: Antimicrobial activity against ESBL producing Klebsiella pneumoniae assessed as intermediate isolate by broth microdilution method
[47] = system: Serratia marcescens; assay: Antimicrobial activity against Ceftazidime susceptible Serratia marcescens by broth microdilution method
[48] = system: Enterobacteriaceae; assay: Antimicrobial activity against Ceftazidime non-susceptible Enterobacteriaceae by broth microdilution method
[49] = system: Serratia marcescens; assay: Antimicrobial activity against Ceftazidime non-susceptible Serratia marcescens assessed as intermediate isolate by broth microdilution method
[50] = system: Citrobacter; assay: Antimicrobial activity against Citrobacter with nonderepressed AmpC beta-lactamsae by broth microdilution method
[51] = system: Citrobacter; assay: Antimicrobial activity against Citrobacter with derepressed AmpC beta-lactamsae assessed as susceptible isolate by broth microdilution method
[52] = system: Citrobacter; assay: Antimicrobial activity against Citrobacter with nonderepressed AmpC beta-lactamsae assessed as susceptible isolate by broth microdilution method
[53] = system: Enterobacteriaceae; assay: Antimicrobial activity against Ceftazidime non-susceptible Enterobacteriaceae assessed as susceptible isolate by broth microdilution method
[54] = system: Enterobacteriaceae; assay: Antimicrobial activity against Ceftazidime non-susceptible Enterobacteriaceae assessed as intermediate isolate by broth microdilution method
[55] = system: Serratia marcescens; assay: Antimicrobial activity against Ceftazidime susceptible Serratia marcescens assessed as intermediate isolate by broth microdilution method
[56] = system: Escherichia coli; assay: Antimicrobial activity against ESBL producing Escherichia coli by broth microdilution method
[57] = system: Klebsiella pneumoniae; assay: Antimicrobial activity against ESBL producing Klebsiella pneumoniae by broth microdilution method
[58] = system: Enterobacteriaceae; assay: Antimicrobial activity against ceftazidime-susceptible Enterobacteriaceae assessed as intermediate isolate by broth microdilution method
[59] = system: Escherichia coli; assay: Antimicrobial activity against Non-ESBL Escherichia coli assessed as resistant isolate by broth microdilution method
[60] = system: Escherichia coli; assay: Antimicrobial activity against ESBL producing Escherichia coli assessed as susceptible isolate by broth microdilution method
[61] = Streptococcus pneumoniae, read-out: MIC90

SMILES: C[C@@H](O)[C@H]1C(=O)N2C(C(=O)O)=C(S[C@@H]3CN[C@H](C(=O)Nc4cccc(C(=O)O)c4)C3)[C@H](C)[C@H]12
- MIC90 [1]: 0.5 µg/mL (≈ 1.05 µM)
- MIC90 ([1]; Staphylococcus aureus, read-out: MIC90): 0.25 µg/mL (≈ 0.526 µM)
- MIC90 [2]: 0.03 µg/mL (≈ 0.0631 µM)
- MIC90 [2, 61]: 0.03 µg/mL (≈ 0.0631 µM)
- Activity [3]: 94.5%
- Activity [4]: 100%
- Activity [5]: 99.4%
- Activity [6]: 39.6%
- MIC90 [7]: 0.5 µg/mL (≈ 1.05 µM)
- MIC90 ([7]; Staphylococcus, read-out: MIC90): 0.25 µg/mL (≈ 0.526 µM)
- MIC90 [8]: 2 µg/mL (≈ 4.21 µM)
- MIC90 [8, 61]: 2 µg/mL (≈ 4.21 µM)
- Activity [9]: 99.4%

SMILES: CO/N=C(\C(=O)N[C@@H]1C(=O)N2C(C(=O)O)=C(CSc3nc(=O)c(O)nn3C)CS[C@H]12)c1csc(N)n1 [CEFTRIAXONE]
- Activity [10]: 6.8%
- Activity [11]: 0.3%
- Activity [12]: 99.3%
- Activity [13]: 100%
- Activity [14]: 1.1%
- Activity [15]: 66.7%
- Activity [16]: 93.2%
- Activity [17]: 0.3%
- MIC50 [18]: 64 µg/mL (≈ 115 µM)
- MIC90 [18]: > 64 µg/mL
- Activity [19]: 99.3%
- MIC50 [20]: 64 µg/mL (≈ 115 µM)
- MIC90 [20]: > 64 µg/mL
- MIC50 [21]: > 64 µg/mL
- MIC90 [21]: > 64 µg/mL
- Activity [22]: 91.9%
- Activity [23]: 98.7%
- Activity [24]: 0%
- Activity [25]: 0.3%
- Activity [26]: 3.5%
- Activity [27]: 10%
- MIC [28]: ≤ 0.015 µg/mL
- MIC50 [28]: ≤ 0.015 µg/mL
- MIC90 [28]: ≤ 0.015 µg/mL
- Activity [29]: 54.5%
- Activity [30]: 13.3%
- Activity [31]: 4.7%
- Activity [32]: 1.1%
- MIC50 [33]: 0.03 µg/mL (≈ 0.0541 µM)
- MIC90 [33]: 0.25 µg/mL (≈ 0.451 µM)
- Activity [34]: 9.1%
- Activity [35]: 65.4%
- Activity [36]: 0.6%
- MIC50 [37]: 0.03 µg/mL (≈ 0.0541 µM)
- MIC90 [37]: 0.06 µg/mL (≈ 0.108 µM)
- Activity [38]: 99.7%
- Activity [39]: 98.1%
- Activity [40]: 60%
- Activity [41]: 0%
- MIC [42]: 0.06 µg/mL (≈ 0.108 µM)
- MIC50 [43]: 0.25 µg/mL (≈ 0.451 µM)
- MIC90 [43]: 4 µg/mL (≈ 7.21 µM)
- MIC50 [44]: 0.03 µg/mL (≈ 0.0541 µM)
- MIC90 [44]: 0.12 µg/mL (≈ 0.216 µM)
- Activity [45]: 72.7%
- Activity [46]: 8.2%
- MIC50 [47]: 0.25 µg/mL (≈ 0.451 µM)
- MIC90 [47]: 1 µg/mL (≈ 1.8 µM)
- MIC50 [48]: > 64 µg/mL
- MIC90 [48]: > 64 µg/mL
- Activity [49]: 30%
- MIC50 [50]: 0.12 µg/mL (≈ 0.216 µM)
- MIC90 [50]: 0.5 µg/mL (≈ 0.902 µM)
- Activity [51]: 1.8%
- Activity [52]: 97.8%
- Activity [53]: 7.6%
- Activity [54]: 26.9%
- Activity [55]: 1.4%
- MIC50 [56]: > 64 µg/mL
- MIC90 [56]: > 64 µg/mL
- MIC50 [57]: 64 µg/mL (≈ 115 µM)
- MIC90 [57]: > 64 µg/mL
- Activity [58]: 0.4%
- Activity [59]: 0.2%
- Activity [60]: 20%
